Key:
[1] = anaerostipes sp., 12 h, 2 µM
Description: The drug is tested on Anaerostipes sp. strain: fecal isolate for biotransformation. The drug concentrations were measured before and after a 12-h incubation by liquid-chromatography-coupled mass spectrometry (LC–MS)

[2] = The drug is tested on Blautia luti strain: DSM14534 for biotransformation. The drug concentrations were measured before and after a 12-h incubation by liquid-chromatography-coupled mass spectrometry (LC–MS); format: ADME; set-up: dose 2 uM, timepoint 0 vs 12 hours; conditions: 2 µM
[3] = The drug is tested on Bacteroides fragilis strain: HMW610 for biotransformation. The drug concentrations were measured before and after a 12-h incubation by liquid-chromatography-coupled mass spectrometry (LC–MS); conditions: 2 µM
[4] = The drug is tested on Edwardsiella tarda strain: ATCC23685 for biotransformation. The drug concentrations were measured before and after a 12-h incubation by liquid-chromatography-coupled mass spectrometry (LC–MS); conditions: 2 µM
[5] = The drug is tested on Odoribacter splanchnicus strain: fecal isolate for biotransformation. The drug concentrations were measured before and after a 12-h incubation by liquid-chromatography-coupled mass spectrometry (LC–MS); conditions: 2 µM
[6] = The drug is tested on Bacteroides uniformis strain: ATCC8492 for biotransformation. The drug concentrations were measured before and after a 12-h incubation by liquid-chromatography-coupled mass spectrometry (LC–MS); conditions: 2 µM
[7] = The drug is tested on Bacteroides ovatus strain: ATCC8483 for biotransformation. The drug concentrations were measured before and after a 12-h incubation by liquid-chromatography-coupled mass spectrometry (LC–MS); conditions: 2 µM
[8] = The drug is tested on Clostridium scindens strain: ATCC35704 for biotransformation. The drug concentrations were measured before and after a 12-h incubation by liquid-chromatography-coupled mass spectrometry (LC–MS); conditions: 2 µM
[9] = The drug is tested on Clostridium symbiosum strain: ATCC14940 for biotransformation. The drug concentrations were measured before and after a 12-h incubation by liquid-chromatography-coupled mass spectrometry (LC–MS); conditions: 2 µM
[10] = The drug is tested on Bacteroides pectinophilus strain: ATCC43243 for biotransformation. The drug concentrations were measured before and after a 12-h incubation by liquid-chromatography-coupled mass spectrometry (LC–MS); conditions: 2 µM
[11] = The drug is tested on Coprococcus comes strain: ATCC27758 for biotransformation. The drug concentrations were measured before and after a 12-h incubation by liquid-chromatography-coupled mass spectrometry (LC–MS); format: ADME; set-up: dose 2 uM, timepoint 0 vs 12 hours; conditions: 2 µM
[12] = The drug is tested on Parabacteroides merdae strain: ATCC43184 for biotransformation. The drug concentrations were measured before and after a 12-h incubation by liquid-chromatography-coupled mass spectrometry (LC–MS); conditions: 2 µM
[13] = The drug is tested on Anaerococcus hydrogenalis strain: DSM7454 for biotransformation. The drug concentrations were measured before and after a 12-h incubation by liquid-chromatography-coupled mass spectrometry (LC–MS); conditions: 2 µM
[14] = The drug is tested on Bacteroides vulgatus strain: ATCC8482 for biotransformation. The drug concentrations were measured before and after a 12-h incubation by liquid-chromatography-coupled mass spectrometry (LC–MS); conditions: phocaeicola vulgatus, 2 µM
[15] = bacteroides thetaiotaomicron, 12 h, 2 µM
Description: The drug is tested on Bacteroides thetaiotaomicron strain: 3731 for biotransformation. The drug concentrations were measured before and after a 12-h incubation by liquid-chromatography-coupled mass spectrometry (LC–MS)

[16] = bacteroides fragilis, 12 h, 2 µM
Description: The drug is tested on Bacteroides fragilis strain: NCTC 9343 for biotransformation. The drug concentrations were measured before and after a 12-h incubation by liquid-chromatography-coupled mass spectrometry (LC–MS)

[17] = The drug is tested on Clostridium sporogenes strain: ATCC15579 for biotransformation. The drug concentrations were measured before and after a 12-h incubation by liquid-chromatography-coupled mass spectrometry (LC–MS); conditions: 2 µM
[18] = The drug is tested on Alistipes indistinctus strain: DSM22520 for biotransformation. The drug concentrations were measured before and after a 12-h incubation by liquid-chromatography-coupled mass spectrometry (LC–MS); conditions: 2 µM

Structure (SMILES)	Bacterial Biotransformation [1]	Bacterial Biotransformation [2]	Bacterial Biotransformation [3]	Bacterial Biotransformation [4]	Bacterial Biotransformation [5]	Bacterial Biotransformation [6]	Bacterial Biotransformation [7]	Bacterial Biotransformation [8]	Bacterial Biotransformation [9]	Bacterial Biotransformation [10]	Bacterial Biotransformation [11]	Bacterial Biotransformation [12]	Bacterial Biotransformation [13]	Bacterial Biotransformation [14]	Bacterial Biotransformation [15]	Bacterial Biotransformation [16]	Bacterial Biotransformation [17]	Bacterial Biotransformation [18]
NC12CC3CC(CC(C3)C1)C2 [AMANTADINE]	Compound NOT metabolized	Compound NOT metabolized	Compound NOT metabolized	Compound NOT metabolized	Compound NOT metabolized	Compound metabolized	Compound NOT metabolized	Compound NOT metabolized	Compound NOT metabolized	Compound NOT metabolized	Compound NOT metabolized	Compound NOT metabolized	Compound NOT metabolized	Compound NOT metabolized	Compound NOT metabolized	–	–	–
CCC1(c2ccc(N)cc2)CCC(=O)NC1=O (stereo not drawn) [AMINOGLUTETHIMIDE]	Compound NOT metabolized	Compound NOT metabolized	Compound NOT metabolized	Compound NOT metabolized	Compound NOT metabolized	–	Compound NOT metabolized	Compound NOT metabolized	Compound NOT metabolized	Compound NOT metabolized	Compound NOT metabolized	Compound NOT metabolized	Compound NOT metabolized	Compound NOT metabolized	Compound NOT metabolized	Compound NOT metabolized	–	–
CC(C)NCC(O)COc1ccc(CC(N)=O)cc1 (stereo not drawn) [ATENOLOL]	Compound NOT metabolized	Compound NOT metabolized	–	Compound NOT metabolized	–	–	–	Compound NOT metabolized	Compound NOT metabolized	Compound NOT metabolized	Compound NOT metabolized	–	Compound NOT metabolized	Compound NOT metabolized	–	Compound NOT metabolized	Compound NOT metabolized	–
NS(=O)(=O)c1cc2c(cc1Cl)N=C(CSCc1ccccc1)NS2(=O)=O [BENZTHIAZIDE]	Compound NOT metabolized	Compound NOT metabolized	Compound NOT metabolized	Compound NOT metabolized	Compound NOT metabolized	Compound NOT metabolized	Compound NOT metabolized	Compound NOT metabolized	Compound NOT metabolized	Compound NOT metabolized	–	Compound NOT metabolized	Compound NOT metabolized	–	Compound NOT metabolized	–	Compound NOT metabolized	Compound NOT metabolized
CCCC1O[C@@H]2C[C@H]3[C@@H]4CCC5=CC(=O)C=C[C@]5(C)[C@H]4[C@@H](O)C[C@]3(C)[C@]2(C(=O)CO)O1 (stereo partly drawn) [BUDESONIDE]	Compound NOT metabolized	Compound NOT metabolized	Compound metabolized	Compound NOT metabolized	Compound metabolized	–	Compound NOT metabolized	Compound NOT metabolized	Compound NOT metabolized	Compound NOT metabolized	Compound NOT metabolized	Compound metabolized	Compound NOT metabolized	Compound metabolized	Compound metabolized	–	–	Compound NOT metabolized
CN(C)CCOC(c1ccc(Cl)cc1)c1ccccn1.O=C(O)/C=C\C(=O)O (stereo not drawn) [CARBINOXAMINE MALEATE]	Compound NOT metabolized	Compound NOT metabolized	–	Compound NOT metabolized	Compound NOT metabolized	Compound NOT metabolized	Compound NOT metabolized	Compound NOT metabolized	Compound NOT metabolized	Compound NOT metabolized	Compound NOT metabolized	Compound NOT metabolized	Compound NOT metabolized	Compound NOT metabolized	Compound NOT metabolized	Compound NOT metabolized	Compound NOT metabolized	–
CCCC(C)(COC(N)=O)COC(=O)NC(C)C (stereo not drawn) [CARISOPRODOL]	Compound NOT metabolized	–	Compound metabolized	–	–	Compound metabolized	–	Compound NOT metabolized	Compound NOT metabolized	Compound metabolized	Compound NOT metabolized	Compound NOT metabolized	–	Compound metabolized	–	Compound metabolized	–	Compound NOT metabolized
CN/C(=N/CCSCc1nc[nH]c1C)NC#N [CIMETIDINE]	Compound NOT metabolized	Compound NOT metabolized	Compound NOT metabolized	Compound NOT metabolized	–	Compound metabolized	–	–	Compound NOT metabolized	Compound NOT metabolized	Compound NOT metabolized	Compound NOT metabolized	Compound NOT metabolized	–	Compound metabolized	Compound NOT metabolized	–	Compound NOT metabolized
Clc1cccc(Cl)c1N=C1NCCN1 [CLONIDINE]	Compound NOT metabolized	Compound NOT metabolized	–	Compound NOT metabolized	Compound metabolized	Compound metabolized	Compound metabolized	Compound NOT metabolized	Compound NOT metabolized	Compound NOT metabolized	Compound NOT metabolized	Compound NOT metabolized	Compound NOT metabolized	–	Compound metabolized	Compound metabolized	Compound NOT metabolized	–
CN(C)CCC=C1c2ccccc2C=Cc2ccccc21 [CYCLOBENZAPRINE]	Compound NOT metabolized	Compound NOT metabolized	Compound NOT metabolized	Compound NOT metabolized	Compound NOT metabolized	–	Compound NOT metabolized	Compound NOT metabolized	Compound NOT metabolized	–	Compound NOT metabolized	Compound NOT metabolized	Compound NOT metabolized	Compound NOT metabolized	–	Compound NOT metabolized	–	–
CCOC(=O)[C@H](CCc1ccccc1)N[C@@H](C)C(=O)N1[C@H](C(=O)O)C[C@H]2CCCC[C@@H]21 [TRANDOLAPRIL]	Compound NOT metabolized	Compound NOT metabolized	–	Compound NOT metabolized	Compound metabolized	Compound metabolized	–	Compound NOT metabolized	Compound NOT metabolized	–	Compound NOT metabolized	Compound NOT metabolized	Compound metabolized	Compound metabolized	–	Compound metabolized	Compound metabolized	Compound NOT metabolized

Reference: ChEMBL document CHEMBL5303573, “Mapping human microbiome drug metabolism by gut bacteria and their genes” (Nature, 2019)
